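Tested at 5 concentrations; 48 h exposure; 96-well plates; endpoints linearly interpolated, else capped at highest concentration. GI50 marks 50% less growth. TGI: total growth inhibition.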
Each molecule was assayed on M14 melanoma (assay: inhibition of tumour cell growth, NCI panel, 48 h).
`COc1ccc2c(c1)C(C)Cc1c(ncnc1-n1cnc3cc(C)ccc31)N2C` (configuration not stated) gave a GI50 of 67 nM and a TGI of 13.6 µM.

The molecules below were run on OVCAR-3 ovarian (assay: inhibition of tumour cell growth, NCI panel, 48 h).
In the case of `CC(C)(C)OC(=O)n1c(-c2ccccc2F)cc(=O)c2cc3c(cc21)OCO3`, the TGI is reported as over 100 µM.
In the case of `COC(=O)c1cc(/C=C/c2ccc(S(N)(=O)=O)cc2)ccc1O`, the GI50 is reported as 16.5 µM and the TGI is reported as 62.7 µM.
Molecule `Clc1ccc(N=CNc2ccc(-c3nc4ccccc4o3)cc2)cc1` has a GI50 of 11.2 µM and a TGI of 25.3 µM.
For `COc1ccc2c(c1)C(C)Cc1c(ncnc1-n1cnc3cc(C)ccc31)N2C` (configuration not stated), the GI50 was 0.151 µM and the TGI was 14.1 µM.

The molecules below were run on SW-620 colon (assay: inhibition of tumour cell growth, NCI panel, 48 h).
In the case of `CC(C)(C)OC(=O)n1c(-c2ccccc2F)cc(=O)c2cc3c(cc21)OCO3`, the TGI is reported as over 100 µM.
For `COC(=O)c1cc(/C=C/c2ccc(S(N)(=O)=O)cc2)ccc1O`, the GI50 was 25700 nM and the TGI was over 100 µM.
`Clc1ccc(N=CNc2ccc(-c3nc4ccccc4o3)cc2)cc1` was tested, and the GI50 was 2900 nM and the TGI was 8.16 µM.
`COc1ccc2c(c1)C(C)Cc1c(ncnc1-n1cnc3cc(C)ccc31)N2C` (configuration not stated) showed a GI50 of 87 nM and a TGI of 16.1 µM.

Each molecule was assayed on U251 CNS (assay: inhibition of tumour cell growth, NCI panel, 48 h).
`CC(C)(C)OC(=O)n1c(-c2ccccc2F)cc(=O)c2cc3c(cc21)OCO3` was tested, and the TGI was over 32.9 µM.
`COC(=O)c1cc(/C=C/c2ccc(S(N)(=O)=O)cc2)ccc1O` was tested, and the GI50 was 18.8 µM and the TGI was over 100 µM.
In the case of `Clc1ccc(N=CNc2ccc(-c3nc4ccccc4o3)cc2)cc1`, the GI50 is reported as 23.4 µM and the TGI is reported as 91.3 µM.
Molecule `COc1ccc2c(c1)C(C)Cc1c(ncnc1-n1cnc3cc(C)ccc31)N2C` (configuration not stated) has a GI50 of 0.148 µM and a TGI of 11.6 µM.

What follows are molecules tested on SNB-75 CNS (assay: inhibition of tumour cell growth, NCI panel, 48 h).
In the case of `CC(C)(C)OC(=O)n1c(-c2ccccc2F)cc(=O)c2cc3c(cc21)OCO3`, the TGI is reported as over 100 µM.
For `c1csc(-c2c3ccc(=[N+]4CCCCC4)cc-3oc3cc(N4CCCCC4)ccc23)c1`, the GI50 was 123 nM and the TGI was 0.508 µM.
`COC(=O)c1cc(/C=C/c2ccc(S(N)(=O)=O)cc2)ccc1O` showed a GI50 of 57000 nM and a TGI of over 100 µM.
`COc1ccc2c(c1)C(C)Cc1c(ncnc1-n1cnc3cc(C)ccc31)N2C` (configuration not stated) was tested, and the GI50 was 52.9 nM and the TGI was 19.9 µM.

These molecules were tested on OVCAR-8 ovarian (assay: inhibition of tumour cell growth, NCI panel, 48 h).
In the case of `CC(C)(C)OC(=O)n1c(-c2ccccc2F)cc(=O)c2cc3c(cc21)OCO3`, the TGI is reported as 20.4 µM.
Work on `COC(=O)c1cc(/C=C/c2ccc(S(N)(=O)=O)cc2)ccc1O` yielded a GI50 of 27.3 µM and a TGI of over 100 µM.
With `Clc1ccc(N=CNc2ccc(-c3nc4ccccc4o3)cc2)cc1` the GI50 was 21.1 µM and the TGI was 40.9 µM.
`COc1ccc2c(c1)C(C)Cc1c(ncnc1-n1cnc3cc(C)ccc31)N2C` (configuration not stated) was tested, and the GI50 was 0.244 µM and the TGI was 0.938 µM.

The molecules below were run on HOP-62 NSCLC (assay: inhibition of tumour cell growth, NCI panel, 48 h).
For `CC(C)(C)OC(=O)n1c(-c2ccccc2F)cc(=O)c2cc3c(cc21)OCO3`, the TGI was over 100 µM.
`c1csc(-c2c3ccc(=[N+]4CCCCC4)cc-3oc3cc(N4CCCCC4)ccc23)c1` showed a GI50 of 64.8 nM and a TGI of 0.199 µM.
With `COC(=O)c1cc(/C=C/c2ccc(S(N)(=O)=O)cc2)ccc1O` the GI50 was 41700 nM and the TGI was over 100 µM.
Molecule `Clc1ccc(N=CNc2ccc(-c3nc4ccccc4o3)cc2)cc1` has a GI50 of over 100000 nM and a TGI of over 100 µM.
For `COc1ccc2c(c1)C(C)Cc1c(ncnc1-n1cnc3cc(C)ccc31)N2C` (configuration not stated), the GI50 was 70.7 nM and the TGI was 18.2 µM.

What follows are molecules tested on MDA-MB-435 (assay: inhibition of tumour cell growth, NCI panel, 48 h).
Molecule `CC(C)(C)OC(=O)n1c(-c2ccccc2F)cc(=O)c2cc3c(cc21)OCO3` has a TGI of over 100 µM.
Molecule `COC(=O)c1cc(/C=C/c2ccc(S(N)(=O)=O)cc2)ccc1O` has a GI50 of 35.6 µM and a TGI of over 100 µM.
`Clc1ccc(N=CNc2ccc(-c3nc4ccccc4o3)cc2)cc1` showed a GI50 of 21.1 µM and a TGI of 49.8 µM.

Each molecule was assayed on PC-3 prostate (assay: inhibition of tumour cell growth, NCI panel, 48 h).
For `CC(C)(C)OC(=O)n1c(-c2ccccc2F)cc(=O)c2cc3c(cc21)OCO3`, the TGI was over 100 µM.
`c1csc(-c2c3ccc(=[N+]4CCCCC4)cc-3oc3cc(N4CCCCC4)ccc23)c1` was tested, and the GI50 was 0.0373 µM and the TGI was 0.177 µM.
With `COC(=O)c1cc(/C=C/c2ccc(S(N)(=O)=O)cc2)ccc1O` the GI50 was 30.7 µM and the TGI was over 100 µM.
In the case of `Clc1ccc(N=CNc2ccc(-c3nc4ccccc4o3)cc2)cc1`, the GI50 is reported as 41.7 µM and the TGI is reported as over 100 µM.
`COc1ccc2c(c1)C(C)Cc1c(ncnc1-n1cnc3cc(C)ccc31)N2C` (configuration not stated) gave a GI50 of 0.0407 µM and a TGI of 21 µM.

The molecules below were run on UO-31 renal (assay: inhibition of tumour cell growth, NCI panel, 48 h).
Work on `c1csc(-c2c3ccc(=[N+]4CCCCC4)cc-3oc3cc(N4CCCCC4)ccc23)c1` yielded a GI50 of 0.136 µM and a TGI of 0.277 µM.
For `COC(=O)c1cc(/C=C/c2ccc(S(N)(=O)=O)cc2)ccc1O`, the GI50 was 29.1 µM and the TGI was over 100 µM.
For `Clc1ccc(N=CNc2ccc(-c3nc4ccccc4o3)cc2)cc1`, the GI50 was 40.6 µM and the TGI was over 100 µM.
For `COc1ccc2c(c1)C(C)Cc1c(ncnc1-n1cnc3cc(C)ccc31)N2C` (configuration not stated), the GI50 was 0.106 µM and the TGI was 13.1 µM.

What follows are molecules tested on LOX IMVI melanoma (assay: inhibition of tumour cell growth, NCI panel, 48 h).
For `COC(=O)c1cc(/C=C/c2ccc(S(N)(=O)=O)cc2)ccc1O`, the GI50 was 30 µM and the TGI was over 100 µM.
Molecule `Clc1ccc(N=CNc2ccc(-c3nc4ccccc4o3)cc2)cc1` has a GI50 of 12.5 µM and a TGI of 25.8 µM.
Molecule `COc1ccc2c(c1)C(C)Cc1c(ncnc1-n1cnc3cc(C)ccc31)N2C` (configuration not stated) has a GI50 of 0.0642 µM and a TGI of 14.5 µM.

What follows are molecules tested on COLO 205 colon (assay: inhibition of tumour cell growth, NCI panel, 48 h).
`COC(=O)c1cc(/C=C/c2ccc(S(N)(=O)=O)cc2)ccc1O` showed a GI50 of 29.8 µM and a TGI of over 100 µM.
With `Clc1ccc(N=CNc2ccc(-c3nc4ccccc4o3)cc2)cc1` the GI50 was 22.7 µM and the TGI was over 100 µM.
Work on `COc1ccc2c(c1)C(C)Cc1c(ncnc1-n1cnc3cc(C)ccc31)N2C` (configuration not stated) yielded a GI50 of 0.176 µM and a TGI of 0.388 µM.

What follows are molecules tested on ACHN renal (assay: inhibition of tumour cell growth, NCI panel, 48 h).
For `CC(C)(C)OC(=O)n1c(-c2ccccc2F)cc(=O)c2cc3c(cc21)OCO3`, the TGI was over 58.7 µM.
`COC(=O)c1cc(/C=C/c2ccc(S(N)(=O)=O)cc2)ccc1O` was tested, and the GI50 was 29.6 µM and the TGI was over 100 µM.
Molecule `Clc1ccc(N=CNc2ccc(-c3nc4ccccc4o3)cc2)cc1` has a GI50 of 24.4 µM and a TGI of over 100 µM.
With `COc1ccc2c(c1)C(C)Cc1c(ncnc1-n1cnc3cc(C)ccc31)N2C` (configuration not stated) the GI50 was 0.0688 µM and the TGI was 15.3 µM.

These molecules were tested on CCRF-CEM leukemia (assay: inhibition of tumour cell growth, NCI panel, 48 h).
With `CC(C)(C)OC(=O)n1c(-c2ccccc2F)cc(=O)c2cc3c(cc21)OCO3` the TGI was 11.1 µM.
Work on `c1csc(-c2c3ccc(=[N+]4CCCCC4)cc-3oc3cc(N4CCCCC4)ccc23)c1` yielded a GI50 of 50.3 nM and a TGI of 1.07 µM.
Molecule `COC(=O)c1cc(/C=C/c2ccc(S(N)(=O)=O)cc2)ccc1O` has a GI50 of 41000 nM and a TGI of over 100 µM.
With `COc1ccc2c(c1)C(C)Cc1c(ncnc1-n1cnc3cc(C)ccc31)N2C` (configuration not stated) the GI50 was 32.4 nM and the TGI was 14.5 µM.

Each molecule was assayed on SF-539 CNS (assay: inhibition of tumour cell growth, NCI panel, 48 h).
Work on `CC(C)(C)OC(=O)n1c(-c2ccccc2F)cc(=O)c2cc3c(cc21)OCO3` yielded a TGI of over 72.9 µM.
With `c1csc(-c2c3ccc(=[N+]4CCCCC4)cc-3oc3cc(N4CCCCC4)ccc23)c1` the GI50 was 0.0446 µM and the TGI was 0.195 µM.
`COC(=O)c1cc(/C=C/c2ccc(S(N)(=O)=O)cc2)ccc1O` showed a GI50 of 18.4 µM and a TGI of 47.4 µM.
`Clc1ccc(N=CNc2ccc(-c3nc4ccccc4o3)cc2)cc1` gave a GI50 of 14.8 µM and a TGI of 45.7 µM.

These molecules were tested on HT29 colon (assay: inhibition of tumour cell growth, NCI panel, 48 h).
In the case of `CC(C)(C)OC(=O)n1c(-c2ccccc2F)cc(=O)c2cc3c(cc21)OCO3`, the TGI is reported as 368 nM.

Source: PubChem BioAssay (NCI)
